# Measurements taken from patent publication US20170182026A1, “Anti-Metastasis Treatment of Melanoma” (University Hospitals Cleveland Medical Center, priority 2015, published 2017).
# Entries after “also recorded” stand apart in the source; their conditions may differ.
# Columns and labels:
# [1] = tested on: autophagic flux; conditions: pharmacologic blockage of GJIC, reference [21]; cited from earlier work
# [2] = tested on: connexins; assay: Connexin protein levels after autophagy blockade; format: cell-based; conditions: A375.52 cells, treatment over 24 hours, FIG. 4B
# Procedure: FIGS. 4A&B presents exemplary data showing an assessment of connexin inhibition on autophagic flux and autophagic blockade on connexin protein levels. […] Tubulin as a loading control. H2O=water control, CBX=Carbenoxolone, Hep=1-Eleptanol, Oct=1-octanol, D=DMSO, HCQ=Hydroxychloroquine. Connexin protein levels were also assessed for possible modification of autophagic flux. For this purpose, hydroxychloroquine, a known autophagy inhibitor and clinically available medication was used. […] Specific autophagy inhibition may be assessed using shRNA (infra).
# [3] = tested on: A375.52 cells; assay: Scratch assay, cell migration; format: cell-based; conditions: over 24 hours, FIG. 5C
# Procedure: (§1) FIG. 5A-C presents exemplary data showing combinatory effects of hydroxychloroquine (HCQ) and 1-octanol on melanoma cell viability and death. […] 4-methyl-heptanol (1 mM) as negative control.
# (§2) The effect of a combined inhibition of GJIC and autophagy was assessed, making use of Promega Cell-Titer Glo and Trypan blue exclusion assay to assess cell viability and cell death, respectively (FIG. 5A and FIG. 5B). […] (FIG. 5C) Cell migration was measured as distance traveled from the edge of a wound and not as percent wound closure.
# [4] = tested on: Cx 36 and 50; conditions: reference [49]; cited from earlier work
# [5] = tested on: connexins 26, 32, and 43; conditions: reference [49]; cited from earlier work
# [6] = tested on: autophagic flux; assay: Western blot of LC3 II/I ratio and p62 levels after connexin (GJIC) inhibitors; format: cell-based; conditions: A375.52 melanoma cells, treatment over 24 hours, FIG. 4A
# Source text: FIGS. 4A&B presents exemplary data showing an assessment of connexin inhibition on autophagic flux and autophagic blockade on connexin protein levels. […] Tubulin as a loading control. H2O=water control, CBX=Carbenoxolone, Hep=1-Eleptanol, Oct=1-octanol, D=DMSO, HCQ=Hydroxychloroquine.
# Connexin protein levels were examined within various melanoma cell lines, see FIG. 3. […] Connexins 43 and 26 has been studied previously in melanoma, and both also have shown relationships with autophagy. […] GJIC inhibition was explored, using three known connexin inhibitors, 1-octanol, 1-heptanol and carbenoxolone, the former of which is clinically available and is labeled as a food additive by the Food and Drug Administration, which is known to affect autophagic flux. GJIC inhibition was measured by changes noted in LC3 II/I ratios and p62 levels. (FIG. 4A).
# [7] = tested on: melanoma cell lines; assay: Promega Cell-Titer Glo cell viability; format: cell-based; conditions: two melanoma cell lines, 72 hours, FIG. 5A
# Procedure: as §1, §2
# [8] = tested on: A375.52; assay: Trypan blue exclusion assay, cell death; format: cell-based; conditions: A375.52, 72 hours, FIG. 5B
# Procedure: as §1, §2
# [9] = tested on: gap junction intercellular communication; assay: Microinjection imaging assay, spread of reporter dye; format: cell-based; conditions: time-lapse microscopy, FIGS. 7A&B
# Source text: FIGS. 7A&B presents exemplary data Showing cell-cell communication in Glioblastoma Stem Cells (GSCs) cells with live imaging.
# The functional status of overall connexin activity after autophagy inhibition will be addressed. […] To measure this, a microinjection imaging assay will be used. One cell is co-injected with a large fluorescent IgG that is unable to leave the parental cell along with a reporter dye that is capable of spreading to adjacent cells. Combining this with time-lapse microscopy, spread of the reporter dye (Lucifer yellow, 2NBDG-a fluorescent glucose analog) can be monitored, see FIGS. 7A&B. The spread of the dye is attenuated when using gap junction inhibitors, including carbenoxolone and 1-octanol. Utilization of multiple assessments of the gap junction intercellular communication, i.e. mRNA expression, protein levels and functional activity levels may pinpoint the particular modulation of GJIC that occurs with autophagic blockade in melanoma cells. […] Additionally, shRNA against shATG5, another key autophagy protein, could be utilized to determine if there were different effects.
structure (smiles),measurement,setting,value
CC1(C)[C@@H](O)CC[C@]2(C)[C@H]3C(=O)C=C4[C@H]5C[C@@](C)(C(=O)O)CC[C@]5(C)CC[C@@]4(C)[C@]3(C)CC[C@@H]12 [18α glycyrrhetinic acid],autophagic flux,[1],decreased autophagic flux
"CCN(CCO)CCCC(C)Nc1ccnc2cc(Cl)ccc12 (racemic) [hydroxychloroquine, (RS)-2-{{4-{(7-chloroquinolin-4-yl)amino}pentyl}(ethyl)amino}ethanol]",levels of connexins 43 and 46,[2],opposite effects on levels of connexins 43 and 46
same,protein levels of connexins,[2],"affects the protein levels of specific connexins; also recorded: does affect protein levels of connexins, but not consistently"
same,cell migration (distance traveled from the edge of a wound),[3],no effect
OC(c1cc(C(F)(F)F)nc2c(C(F)(F)F)cccc12)C1CCCCN1 (stereo not drawn) [mefloquine],block of connexin activity,[4],block activity
same,block of connexin activity,[5],would require much higher doses to affect
CCCCCCCCO [1-octanol],p62 levels,[6],increased p62 levels
same,total LC3 levels,[6],changes in total LC3 levels
same,cell viability,[7],only small effects
same,cell death,[8],only small effects
same,cell migration (distance traveled from the edge of a wound),[3],no effect
same,"spread of the reporter dye (Lucifer yellow, 2NBDG)",[9],attenuated
CC1(C)[C@@H](OC(=O)CCC(=O)O)CC[C@]2(C)[C@H]3C(=O)C=C4[C@@H]5C[C@@](C)(C(=O)O)CC[C@]5(C)CC[C@@]4(C)[C@]3(C)CC[C@@H]12 [carbenoxolone],LC3 II/I ratio,[6],without clear changes in LC3 II/I ratio
same,p62 levels,[6],decreased p62 levels somewhat
same,"spread of the reporter dye (Lucifer yellow, 2NBDG)",[9],attenuated
